Data as given in ChEMBL document CHEMBL4043238, “Discovery of N-substituted 7-azaindoles as Pan-PIM kinase inhibitors - Lead series identification - Part II” (Bioorg Med Chem Lett, 2017).
In brackets after ≈: the same amount, converted by molar mass.

Experiments:
[1] = molecular target: Serine/threonine-protein kinase pim-3 (Homo sapiens, UniProt Q86V86); assay: Inhibition of PIM3 (unknown origin) assessed as reduction in BAD phosphorylation at Ser112 residues by TR-FRET assay
[2] = molecular target: Serine/threonine-protein kinase pim-2 (Homo sapiens, UniProt Q9P1W9); assay: Inhibition of PIM2 (unknown origin) assessed as reduction in BAD phosphorylation at Ser112 residues by TR-FRET assay
[3] = molecular target: T1, Serine/threonine-protein kinase pim-1 (Homo sapiens, UniProt P11309); assay: Inhibition of PIM1 (unknown origin) assessed as reduction in BAD phosphorylation at Ser112 residues by TR-FRET assay
Cytochrome P450 3A4 [4] = molecular target: T2, Cytochrome P450 3A4 (Homo sapiens, UniProt P08684); assay: Inhibition of CYP3A4 (unknown origin) using testosterone as substrate; assay type: ADME
Liver [5] = assay: Stability in mouse liver microsomes; assay type: ADME, microsome
[6] = molecular target: Voltage-gated inwardly rectifying potassium channel KCNH2 (Homo sapiens, UniProt Q12809); assay: Inhibition of human ERG by patch clamp assay
KG-1 = assay: Antiproliferative activity against human KG1 cells; assay type: functional, cell-based
Liver [7] = assay: Stability in human liver microsomes; assay type: ADME, microsome
Cytochrome P450 3A4 [8] = molecular target: T2, Cytochrome P450 3A4; assay: Inhibition of CYP3A4 (unknown origin) using midazolam as substrate; assay type: ADME
[9] = Permeability from apical to basolateral side in human Caco2/TC7 cells at 5 uM; assay type: ADME, cell-based; details: Caco-2, read-out: permeability
Liver [10] = assay: Stability in rat liver microsomes; assay type: ADME, microsome
[11] = (§1) Oral bioavailability in mouse at 10 mg/kg administered as single dose; assay type: ADME, organism-based; details: in vivo
[12] = Cmax in mouse at 3 mg/kg, iv or 10 mg/kg, po administered as single dose; assay type: ADME, organism-based; details: in vivo
[13] = Half life in mouse at 3 mg/kg, iv administered as single dose; assay type: ADME, organism-based; details: in vivo
[14] = Clearance in mouse at 3 mg/kg, iv administered as single dose; assay type: ADME, organism-based; details: in vivo
[15] = AUC (0 to infinity) in mouse at 10 mg/kg, po administered as single dose; assay type: ADME, organism-based; parameters: dose 10 mg/kg, route oral, time infinity; details: in vivo
[16] = Thermodynamic solubility of the compound at pH 7.4; assay type: physicochemical; details: buffer, read-out: Therm_solubility
[17] = Clearance in human liver microsomes assessed as compound extraction at 5 uM; assay type: ADME, microsome; details: read-out: CLH
[18] = Volume of distribution at steady state in mouse at 3 mg/kg, iv administered as single dose; assay type: ADME, organism-based; details: in vivo, read-out: Vdss
[19] = molecular target: T1, Serine/threonine-protein kinase pim-1; assay: Inhibition of PIM1 in human KG1 cells assessed as reduction in BAD phosphorylation; assay type: cell-based
[20] = Half life in mouse at 10 mg/kg, po administered as single dose; assay type: ADME, organism-based; details: in vivo
Mus musculus [21] = assay: as §1; assay type: ADME, organism-based; details: in vivo
[22] = Inhibition of CYP450 (unknown origin); assay type: ADME; details: human
[23] = Induction of CYP450 (unknown origin); assay type: ADME; details: human
Mus musculus [24] = assay: Clearance in mouse at 3 mg/kg, iv administered as single dose relative to hepatic blood flow; assay type: ADME, organism-based; details: in vivo

SMILES | IC50 [1] [nM] | IC50 [2] [nM] | IC50 [3] [nM] | further results
Cn1c(I)c(Cl)c2c(Cl)cc(C(N)=O)nc21 | 69 | 640 | 31 | 
NC(=O)c1cc(Cl)c2c(Cl)c(I)n(C3CCC(O)CC3)c2n1 (configuration not stated) | 25 | 116 | 8 | 
NC(=O)c1cc(Cl)c2c(Cl)c(I)n(CC3CCCN3)c2n1 (racemic) | 45 | 383 | 12 | 
NC(=O)c1cc(Cl)c2c(Cl)c(I)n(C3CCCC(N)C3)c2n1 (racemic) | 2 | 10 | 1 | 
NC(=O)c1cc(Cl)c2c(Cl)c(C3CC3)n([C@@H]3CCCNC3)c2n1 |  | 22 | 4 | IC50 (Cytochrome P450 3A4 [4]): > 30000 nM; Stability (Liver [5]): 11%; IC50 [6]: 1500 nM; IC50 (KG-1): 822 nM; Stability (Liver [7]): 3%; IC50 (Cytochrome P450 3A4 [8]): > 30000 nM; Papp A→B at 5 µM [9]: 3.6 ×10⁻⁶ cm/s; Stability (Liver [10]): 8%
NC(=O)c1cc(Cl)c2c(Cl)c(I)n(CC3CCNCC3)c2n1 | 12 | 99 | 4 | 
NC(=O)c1cc(Cl)c2c(Cl)c(I)n(C3CCNCC3)c2n1 | 4 | 28 | 2 | 
Cn1cc(-c2c(Cl)c3c(Cl)cc(C(N)=O)nc3n2C2CCCNC2)cn1 (configuration not stated) |  | 16 | 1 | 
NC(=O)c1cc(Cl)c2c(Cl)c(I)n(CC3CCNC3)c2n1 (racemic) | 1 | 23 | 1 | 
NC(=O)c1cc(Cl)c2c(Cl)c(C3=CCOCC3)n(C3CCCNC3)c2n1 (configuration not stated) |  | 179 | 103 | 
NC(=O)c1cc(Cl)c2c(Cl)c(I)n(Cc3ccncc3)c2n1 | 5620 |  | 720 | 
CN1CCC(n2c(I)c(Cl)c3c(Cl)cc(C(N)=O)nc32)CC1 | 6 | 34 | 2 | 
Cc1c(-c2ccc(N3CCN(C)CC3)cc2)n(C)c2nc(C(N)=O)cc(Cl)c12 |  | 1950 | 37 | 
NC(=O)c1cc(Cl)c2c(Cl)c(I)n(C3CCCNC3)c2n1 (racemic) | 2 | 6 | 1 | bioavailability [11]: 54%; Cmax [12]: 3500 ng/mL; half-life [13]: 1.5 h; IC50 (KG-1): 85 nM; clearance [14]: 6 mL/min/kg; Papp A→B at 5 µM [9]: 2.6 ×10⁻⁶ cm/s; AUC(0-inf) [15]: 15000 ng·h/mL; solubility thermodynamic [16]: 42 µM (≈ 18.4 µg/mL); hepatic extraction ratio at 5 µM [17]: 0.35; Vd [18]: 0.55 L/kg; IC50 [19]: 47 nM; half-life [20]: 2.3 h
NC(=O)c1cc(Cl)c2c(Cl)c(C3CCCO3)n(C3CCCNC3)c2n1 (configuration not stated) |  | 135 | 31 | 
NC(=O)c1cc(Cl)c2c(Cl)c(I)n(C3CCNC(=O)C3)c2n1 (racemic) | 64 | 660 | 32 | 
CCN(CC)CCn1c(I)c(Cl)c2c(Cl)cc(C(N)=O)nc21 | 480 | 7410 | 125 | 

SMILES | IC50 [1] [nM] | IC50 [2] [nM] | IC50 [3] [nM] | further results
NC(=O)c1cc(Cl)c2c(Cl)c(I)n(CCC3CCNCC3)c2n1 | 17 | 148 | 3 | 
NC(=O)c1cc(Cl)c2c(Cl)c(I)n(C3CN4CCC3CC4)c2n1 (racemic) | 27 | 99 | 6 | 
CSc1c(Cl)c2c(Cl)cc(C(N)=O)nc2n1C1CCCNC1 (configuration not stated) |  | 15 | 3 | 
NC(=O)c1cc(Cl)c2c(Cl)c(-c3ccccc3)n(C3CCCNC3)c2n1 (configuration not stated) |  | 109 | 13 | 
NC(=O)c1cc(Cl)c2c(Cl)c(I)n(C3CNC3)c2n1 | 350 | 4220 | 250 | 
NC(=O)c1cc(Cl)c2c(Cl)c(I)n(C3CCC(N)CC3)c2n1 (configuration not stated) | 3 | 6 | 1 | 
NC(=O)c1cc(Cl)c2c(Cl)c(C(F)(F)F)n(C3CCCNC3)c2n1 (configuration not stated) |  | 25 | 67 | 
NC(=O)c1cc(Cl)c2c(Cl)c(C3CC3)n(C3CCCNC3)c2n1 (racemic) |  | 13 | 1 | F (Mus musculus [21]): 155%; IC50 [6]: 2900 nM; Cmax [12]: 292 ng/mL; half-life [13]: 3.1 h; IC50 (KG-1): 310 nM; clearance [14]: 18.3 mL/min/kg; Papp A→B at 5 µM [9]: 1.9 ×10⁻⁶ cm/s; inhibition (INH) [22]: Not Active; AUC(0-inf) [15]: 13700 ng·h/mL; solubility thermodynamic [16]: 0.4 µM (≈ 0.141 µg/mL); hepatic extraction ratio at 5 µM [17]: 0.02; Activity [23]: Not Active; Vd [18]: 4.6 L/kg; IC50 [19]: 115 nM; half-life [20]: 8.9 h
NC(=O)c1cc(Cl)c2c(Cl)c(C#CC3CC3)n(C3CCCNC3)c2n1 (racemic) |  | 6 | 0.7 | bioavailability [11]: 97%; IC50 [6]: 1000 nM; Cmax [12]: 958 ng/mL; CL (Mus musculus [24]): > 75%; half-life [13]: 2.6 h; IC50 (KG-1): 167 nM; clearance [14]: 65 mL/min/kg; Papp A→B at 5 µM [9]: 3 ×10⁻⁶ cm/s; AUC(0-inf) [15]: 2500 ng·h/mL; solubility thermodynamic [16]: 13 µM (≈ 4.9 µg/mL); hepatic extraction ratio at 5 µM [17]: 0.21; Vd [18]: 11 L/kg; IC50 [19]: 75 nM; half-life [20]: 3.3 h
COC/C=C/c1c(Cl)c2c(Cl)cc(C(N)=O)nc2n1C1CCCNC1 (configuration not stated) |  | 57 | 8 | 
CN1CCN(c2ccc(-c3cc4c(Cl)cc(C(N)=O)nc4n3C)cc2)CC1 |  | > 30000 | 250 | 
NCC1CCC(n2c(I)c(Cl)c3c(Cl)cc(C(N)=O)nc32)CC1 (configuration not stated) |  | 9 | 3 | 
CC(C)=Cc1c(Cl)c2c(Cl)cc(C(N)=O)nc2n1C1CCCNC1 (configuration not stated) |  | 24 | 4 | 
NC(=O)c1cc(Cl)c2c(Cl)c(I)n(C3CCCC(O)C3)c2n1 (racemic) | 28 | 89 | 8 | 
NC(=O)c1cc(Cl)c2c(Cl)c(I)n(C3CCCNCC3)c2n1 (racemic) | 3 | 15 | 1 | 
COCC1CC1c1c(Cl)c2c(Cl)cc(C(N)=O)nc2n1C1CCCNC1 (configuration not stated) |  | 298 | 42 | 
